In experiment [1] the target is T1, recombinant human FLAP protein (Homo sapiens, UniProt P20292).
T1 construct: made in house; host or cells: Sf9 insect cells (membrane fraction, 100,000 x g pellet)
T1 sequence (P20292 1-161): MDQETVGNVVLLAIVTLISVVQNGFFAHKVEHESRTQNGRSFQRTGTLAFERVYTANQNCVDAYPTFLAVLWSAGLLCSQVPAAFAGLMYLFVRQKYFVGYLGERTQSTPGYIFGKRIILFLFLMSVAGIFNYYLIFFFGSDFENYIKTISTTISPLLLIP
As to the kind of experiment: FLAP binding assay (Scintillation Proximity Assay, displacement of [125I]L-691,831). Particulars: read-out: Human FLAP SPA Binding (IC50 nM). The method, then:
Compounds are assessed for the ability to bind to FLAP in a binding assay that measures compound-specific displacement of an iodinated (^125I) FLAP inhibitor via a Scintillation Proximity Assay format (adapted from S. Charleson et al., Mol. Pharmacol., 1992, 41, 873-879).
Cell pellets produced from sf9 insect cells expressing recombinant human FLAP protein are resuspended in buffer A [15 mM Tris-HCl (pH 7.5), 2 mM MgCl2, 0.3 mM EDTA, 1 mM PMSF]. The cells are lysed with a Dounce homogenizer and the material is centrifuged at 10,000×g for 10 minutes. The supernatant is then collected and centrifuged at 100,000×g for 60 minutes. To prepare membrane protein for an assay, an aliquot of the 100,000×g pellet is resuspended in 1 ml of buffer A, Dounce homogenized, and finally subjected to polytron mixing (30 seconds). Membrane protein (25 μl, 5 μg) is mixed with WGA SPA beads (Amersham) and stirred for 1 h. To an assay plate (Perkin Elmer FlexiPlate) is added 25 μl of test compound prepared in Binding buffer [100 mM Tris (pH 7.5), 140 mM NaCl, 5% glycerol, 2 mM EDTA, 0.5 mM TCEP, 0.05% Tween 20], 25 μl of [^125I]L-691,831 (an iodinated analog of MK-591, Charleson et al. Mol. Pharmacol., 41, 873-879, 1992) and finally 50 μl of the bead/protein mixture. (final concentrations: beads, 200 μg/well; protein, 5 μg/well; [^125I] probe, 0.08 nM/well (17 nCi/well). The plates are shaken for 2 h before reading on a Microbeta plate reader. Non-specific binding is determined by the addition of 10 μM cold L-691,831 compound.
For orientation: In a scintillation proximity assay essentially only radioactivity close to the scintillant gives light.

Experiment [2] relates to synthesis of LTB4 in human whole blood. As to the kind of experiment: Human whole blood assay (calcimycin-stimulated LTB4 synthesis). In kind it is cell-based. The note with it: Homo sapiens; read-out: Human Whole Blood LTB4 Assay for FLAP (IC50 nM). As for the experimental part: Compounds are additionally tested in a human whole blood assay to determine their ability to inhibit the synthesis of LTB4 in a cellular system. Compounds are combined with heparinized human whole blood and incubated for 15 minutes at 37° C. Calcimycin (20 μM final, prepared in phosphate-buffered saline, pH 7.4) is then added and the mixture is incubated for another 30 minutes at 37° C. The samples are centrifuged for 5 min at low speed (1500×g) and the plasma layer is removed. Plasma LTB4 concentrations are then measured using an antibody-based homogenous time-resolved fluorescence method (CisBio, Bedford, Mass.).

The values below come from US9174980B2, “Heterocyclic compounds as inhibitors of leukotriene production” (Boehringer Ingelheim International GmbH, priority 2012, dated 2015).

The term IC50 denotes the point on the concentration scale where inhibition reaches its midpoint.

Take `CN(C)C(=O)Cn1cc(-c2cc([C@](C)(c3ccc(-c4cnc(N)nc4)cc3)C3CC3)no2)cn1` [Example 198, 2-[4-(3-{(1S)-1-[4-(2-aminopyrimidin-5-yl)phenyl]-1-cyclopropylethyl}-1,2-oxazol-5-yl)-1H-pyrazol-1-yl]-N,N-dimethylacetamide]: the IC50 in experiment [1] is 350 nM; in experiment [2], 1600 nM.
Consider `CC(C)C(C)(c1ccc(-c2cnc(N)nc2)cc1)c1c[nH]c2cc(F)ccc12` (centres unmarked) [Example 60, 5-{4-[2-(6-fluoro-1H-indol-3-yl)-3-methylbutan-2-yl]phenyl}pyrimidin-2-amine], for which the figures for the IC50 in experiment [1] and in experiment [2] were 0.86 nM and 170 nM, respectively.
The matching figures for `Cn1cc(-c2cc(C(C)(c3ccc(-c4cnc(N)nc4)nc3)C3CC3)no2)cn1` (centres unmarked) [Example 199, 5-(5-{1-Cyclopropyl-1-[5-(1-methyl-1H-pyrazol-4-yl)-isoxazol-3-yl]-ethyl}-pyridin-2-yl)-pyrimidin-2-ylamine]: 230 nM and 590 nM.
`Nc1ncc(-c2ccc(C3(c4nc5ccccc5o4)CCC3)cn2)cn1` [Example 138, 5-{5-[1-(1,3-benzoxazol-2-yl)cyclobutyl]pyridin-2-yl}pyrimidin-2-amine]: the IC50 came to 18 nM in experiment [1] and 990 nM in experiment [2].
Turning to `COC(=O)c1cc(-c2cnn(C)c2)c(C2(c3ccc(-c4cnc(N)nc4)cc3)CCC2)n1C` [Example 182, methyl 5-{1-[4-(2-aminopyrimidin-5-yl)phenyl]cyclobutyl}-1-methyl-4-(1-methyl-1H-pyrazol-4-yl)-1H-pyrrole-2-carboxylate], the IC50 is 38 nM in experiment [1] and 1400 nM in experiment [2].
As to `Nc1ncc(-c2ccc(C3(c4c[nH]c5ccncc45)CCC3)cc2)cn1` [Example 110, 5-{4-[1-(1H-pyrrolo[3,2-c]pyridin-3-yl)cyclobutyl]phenyl}pyrimidin-2-amine], the IC50 in experiment [1] is 87 nM; in experiment [2], 1500 nM.
As to `CN(C)C(=O)Cn1cc(-c2coc(C(C)(c3ccc(-c4cnc(N)nc4)nc3)C3CC3)n2)cn1` (centres unmarked) [Example 205, 2-[4-(2-{1-[6-(2-Amino-pyrimidin-5-yl)-pyridin-3-yl]-1-cyclopropyl-ethyl}-oxazol-4-yl)-pyrazol-1-yl]-N,N-dimethyl-acetamide], the IC50 was 1500 nM in experiment [1] and 1600 nM in experiment [2].
On to `Nc1ncc(-c2ccc(C3(c4cn(CC(=O)O)c5ccccc45)CCC3)cc2)cn1` [Example 124, (3-{1-[4-(2-aminopyrimidin-5-yl)phenyl]cyclobutyl}-1H-indol-1-yl)acetic acid], for which the IC50 was 5.5 nM in experiment [1] and over 5000 nM in experiment [2].
Taken in the same sequence, the figures for `Cn1cc(-c2coc(C(C)(c3ccc(-c4cnc(N)nc4)cc3)C3CC3)n2)cn1` (centres unmarked) [Example 171, 5-(4-{1-cyclopropyl-1-[4-(1-methyl-1H-pyrazol-4-yl)-1,3-oxazol-2-yl]ethyl}phenyl)pyrimidin-2-amine] were 7.4 nM and 140 nM.
The matching figures for `Nc1ncc(-c2ccc(C3(c4nnc(-c5ccccc5)o4)CCC3)cc2)cn1` [Example 93, 5-{4-[1-(5-phenyl-1,3,4-oxadiazol-2-yl)cyclobutyl]phenyl}pyrimidin-2-amine]: 29 nM and over 5000 nM.
`CC(C)(O)Cn1cc(-c2coc([C@@](C)(c3ccc(-c4cnc(N)nc4)cc3)C3CC3)n2)cn1` [Example 203, 1-[4-(2-{(R)-1-[4-(2-Amino-pyrimidin-5-yl)-phenyl]-1-cyclopropyl-ethyl}-oxazol-4-yl)-pyrazol-1-yl]-2-methyl-propan-2-ol]: the IC50 in experiment [1] came to 36 nM; in experiment [2], 190 nM.
The matching figures for `CC(C)C(C)(c1ccc(-c2cnc(N)nc2)cc1)c1cn(Cc2ccc(Cl)cc2)c2ccccc12` (centres unmarked) [Example 29, 5-(4-{2-[1-(4-chlorobenzyl)-1H-indol-3-yl]-3-methylbutan-2-yl}phenyl)pyrimidin-2-amine]: 5.1 nM and 2700 nM.
Taken in the same sequence, the figures for `Nc1ncc(-c2ccc(C3(c4c[nH]c5cc(F)ccc45)CCC3)cc2)cn1` [Example 82, 5-{4-[1-(6-fluoro-1H-indol-3-yl)cyclobutyl]phenyl}pyrimidin-2-amine] were 0.94 nM and 160 nM.
With `Cn1cc(-c2coc([C@](C)(c3ccc(-c4cnc(N)nc4)cc3)C3CC3)n2)cn1` [Example 186, 5-[4-[(1S)-1-cyclopropyl-1-[4-(1-methylpyrazol-4-yl)oxazol-2-yl]ethyl]phenyl]pyrimidin-2-amine], the IC50 stood at 87 nM in experiment [1] and 2000 nM in experiment [2].
As to `Nc1ncc(-c2ccc(C3(c4c[nH]c5ccccc45)CCCCC3)cc2)cn1` [Example 89, 5-{4-[1-(1H-indol-3-yl)cyclohexyl]phenyl}pyrimidin-2-amine], the IC50 in experiment [1] is 12 nM; in experiment [2] it was 2200 nM.
As for `CN(C)C(=O)Cn1cc(-c2cnc(C3(c4ccc(-c5cnc(N)nc5)cc4)CCC3)s2)cn1` [Example 180, 2-[4-(2-{1-[4-(2-aminopyrimidin-5-yl)phenyl]cyclobutyl}-1,3-thiazol-5-yl)-1H-pyrazol-1-yl]-N,N-dimethylacetamide], the IC50 in experiment [1] is 8.9 nM; in experiment [2], 270 nM.
The matching figures for `Nc1ncc(-c2ccc(C3(c4c[nH]c5cccnc45)CCC3)cc2)cn1` [Example 108, 5-{4-[1-(1H-pyrrolo[3,2-b]pyridin-3-yl)cyclobutyl]phenyl}pyrimidin-2-amine]: 3 nM and 360 nM.
For `Nc1ncc(-c2ccc(C3(c4cn(CC(=O)N5CCOCC5)c5ccccc45)CCC3)cc2)cn1` [Example 148, 2-(3-{1-[4-(2-aminopyrimidin-5-yl)phenyl]cyclobutyl}-1H-indol-1-yl)-1-(morpholin-4-yl)ethanone], the IC50 in experiment [1] was 9 nM; in experiment [2], 3100 nM.
For the compound `CC(C)C(C)(c1ccc(OCc2ccccn2)cc1)c1cn(C)c2cc(C(=O)Nc3cccnn3)ccc12` (centres unmarked) [Example 37, 3-[1,2-dimethyl-1-[4-(2-pyridylmethoxy)phenyl]propyl]-1-methyl-N-pyridazin-3-yl-indole-6-carboxamide], the values for the IC50 in experiment [1] and in experiment [2] were 1.4 nM and 150 nM, respectively.
Take `c1cnc2[nH]cc(C3(c4ccc(-c5cnc6[nH]ccc6c5)cc4)CCC3)c2c1` [Example 130, 3-{1-[4-(1H-pyrrolo[2,3-b]pyridin-5-yl)phenyl]cyclobutyl}-1H-pyrrolo[2,3-b]pyridine]: the IC50 is 1.5 nM in experiment [1] and 140 nM in experiment [2].
Regarding `Cn1cc(-c2cnc(C3(c4ccc(-c5cnc(N)nc5)cc4)CCC3)s2)cn1` [Example 190, 5-(4-{1-[5-(1-methyl-1H-pyrazol-4-yl)-1,3-thiazol-2-yl]cyclobutyl}phenyl)pyrimidin-2-amine], the IC50 in experiment [1] is 4.9 nM; in experiment [2], 80 nM.
Taken in the same sequence, the figures for `CN(C)CCn1cc(-c2cnc(C3(c4ccc(-c5cnc(N)nc5)cc4)CCC3)s2)cn1` [Example 181, 5-{4-[1-(5-{1-[2-(dimethylamino)ethyl]-1H-pyrazol-4-yl}-1,3-thiazol-2-yl)cyclobutyl]phenyl}pyrimidin-2-amine] were 6.1 nM and 110 nM.
With `Cn1ccc(C(O)(c2ccc(-c3cnc(N)nc3)cc2)C(C)(C)C)n1` (centres unmarked) [Example 72, 1-[4-(2-aminopyrimidin-5-yl)phenyl]-2,2-dimethyl-1-(1-methyl-1H-pyrazol-3-yl)propan-1-ol], the IC50 in experiment [1] was 110 nM; in experiment [2] it was 2100 nM.
`CC(C)C(C)(c1ccc(-c2cnc(N)nc2)cc1)c1c[nH]c2c(C(=O)N3CCC(O)C3)cccc12` (centres unmarked) [Example 98, (3-{2-[4-(2-aminopyrimidin-5-yl)phenyl]-3-methylbutan-2-yl}-1H-indol-7-yl)(3-hydroxypyrrolidin-1-yl)methanone]: the IC50 in experiment [1] was found to be 0.6 nM; in experiment [2], 360 nM.
As to `Cn1cc(-c2c(C3(c4ccc(-c5cnc(N)nc5)cc4)CCC3)c3ccccc3n2C(=O)OC(C)(C)C)cn1` [Example 188, tert-butyl 3-{1-[4-(2-aminopyrimidin-5-yl)phenyl]cyclobutyl}-2-(1-methyl-1H-pyrazol-4-yl)-1H-indole-1-carboxylate], the IC50 was 270 nM in experiment [1] and over 5000 nM in experiment [2].
